Calls of active or inactive are those of the source. No rule for the calls is given here.

This test has as its system Trypanosoma brucei growth inhibition. As to the kind of experiment: trypanosome proliferation inhibitors (AID 1159557).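 Also: parasites exposed to compound for 48 h before the resazurin readout.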
A word on the IC50: it is the point on the concentration scale where inhibition reaches its midpoint. For the compound `CNC(=O)C1Cc2ccccc2N1C(=O)Cc1ccc(F)cc1` (configuration not stated), the IC50 is 0.25 µM.

For the compound `Fc1ccccc1N1C[C@H]2CCN(c3cccnc3)C[C@H]2C1`, the IC50 was 32 µM.

On to `O=c1[nH]cnc2c([C@@H]3O[C@H](CO)[C@@H](O)[C@H]3O)[nH]nc12`, for which the 50% inhibitory concentration (IC50) is 0.0032 µM.

Regarding `CC(C(=O)Nc1ccc(Br)cc1)N1CCN(c2ccc([N+](=O)[O-])cc2)CC1` (configuration not stated), the IC50 was > 40 µM (inactive).

For the compound `COc1ccc(C2C3CCCCC3(O)CCN2CC(=O)Nc2ccc(Cl)cc2Cl)cc1` (configuration not stated), the IC50 is 7.9 µM.

With `Cc1[nH]nc(Nc2ccnc3[nH]ccc23)c1C`, the IC50 was 0.13 µM.

With `c1ccc2c(CCOc3nccnc3-c3ccncc3)c[nH]c2c1`, the 50% inhibitory concentration (IC50) was 32 µM.

As for `CC1(C)CCC(=Cc2ccc(Cl)cc2)CC1(O)Cn1ccnc1` (configuration not stated), the half-maximal inhibitory concentration (IC50) was 10 µM.

In the case of `O=C1OCc2ccc(Nc3nccc(-c4cnn5ncccc45)n3)cc21`, the IC50 is 0.004 µM.

With `NC(=O)c1ccccc1Nc1nc(NC2CCCCC2)nc2[nH]ccc12`, the IC50 was 0.5 µM.

On to `COc1ccc(-c2cnc(C)o2)cc1S(=O)(=O)Nc1ccc(C)cc1C`, for which the IC50 was 6.3 µM.

Turning to `Cc1ccccc1OCC(=O)N1CCCN(c2cccnn2)CC1`, the IC50 was > 40 µM (inactive).

In the case of `COc1cc(C(C)C)c(S(C)(=O)=O)cc1C(=O)N1CCN(c2ccccc2Cl)CC1`, the half-maximal inhibitory concentration (IC50) is 25 µM.

On to `Cc1ccc(C)c(CN2C(=O)NC3(CCc4ccccc43)C2=O)c1` (configuration not stated), for which the IC50 is 0.5 µM.

For the compound `Cn1cncc1CN1CCC2(CC1)COC(Cc1ccccc1)C2` (configuration not stated), the IC50 was > 40 µM (inactive).

For `O=C(c1cnn(-c2ccccc2)n1)N1CCCC(n2ccnc2)C1` (configuration not stated), the IC50 was > 40 µM (inactive).

Regarding `COc1ccc(S(=O)(=O)NCc2ccc(-c3ccc(CN(C)CCO)cc3)cc2)cc1`, the concentration for half-maximal inhibition (IC50) is 3.2 µM.

As to `O=C(NCc1ccc(-n2cccc2)cc1)c1nc(Cn2ccc([N+](=O)[O-])n2)no1`, the IC50 is > 40 µM (inactive).

For the compound `O=S1N=C(NCCCN(Cc2ccc(F)cc2)c2ccccn2)C(NCc2ccncc2)=N1` (configuration not stated), the IC50 is 0.32 µM.

For `C[C@@H](Oc1cc(-n2cnc3ccc(C(O)CO)cc32)sc1C(N)=O)c1ccccc1C(F)(F)F` (some centres not stated), the IC50 is 0.4 µM.

In the case of `Cc1ccccc1CNc1cc(C2CC2)nc(-c2nccn2C)n1`, the IC50 is 2.5 µM.

In the case of `CNc1cncc(C2CCCN2C(=O)Cc2ccc3ccccc3c2)n1` (configuration not stated), the IC50 is > 40 µM (inactive).

Turning to `O=C(NC1C(=O)N(c2ccccc2)C1c1cccnc1)c1ccc(Cl)s1` (configuration not stated), the IC50 is > 40 µM (inactive).

As for `O=C(Nc1nc(-c2ccccn2)cs1)c1ccc(S(=O)(=O)N2CCCCC2)cc1`, the IC50 was 0.4 µM.

In the case of `O=C1NCCn2ccc(Nc3nc(NC4CCC(O)CC4)ncc3Cl)c21` (configuration not stated), the IC50 was 0.5 µM.

Take `O=[N+]([O-])c1ccc(C2=CC(c3ccccc3)=NCCN2)cc1`: the concentration for half-maximal inhibition (IC50) was 6.3 µM.

Regarding `Cn1c(CN2CCN(c3ncc(C(F)(F)F)cc3Cl)CC2)nc2ccncc21`, the IC50 was 6.3 µM.

On to `O=C(c1cccc(Nc2ncc(-c3ccc4c(c3)OCO4)cn2)c1)N1CCSC1`, for which the 50% inhibitory concentration (IC50) is 13 µM.

Turning to `CN(Cc1ccc(F)cc1)c1ccc(OCC(=O)N2CCCCC2c2cccnc2)nn1` (configuration not stated), the IC50 was > 40 µM (inactive).

In the case of `COc1cccc(CCNC(=O)C(c2cn[nH]c2)N2CCN(c3ccc(Cl)cc3)CC2)c1` (configuration not stated), the IC50 is 20 µM.

For `Clc1ccc(C(CC2CCCCO2)Cn2cncn2)c(Cl)c1` (configuration not stated), the IC50 was > 40 µM (inactive).

`COc1cc(-c2nc(N3CCOCC3)sc2-c2ccnc(NC3CCOCC3)n2)ccc1Cl`: the half-inhibitory concentration (IC50) was 16 µM.

In the case of `Cc1[nH]c2ccccc2c(=O)c1Cc1c(C)[nH]c2ccccc2c1=O`, the IC50 is > 40 µM (inactive).

As to `CCN(CC)c1ncc(C(=O)c2ccc([N+](=O)[O-])o2)s1`, the IC50 is 0.1 µM.

As for `Cc1nn(-c2ccccc2)nc1CNC(=O)CN(Cc1ccccn1)Cc1ccccn1`, the IC50 is 32 µM.

On to `Cc1c(Nc2cc(C3CC3)[nH]n2)ccc(C#N)c1Cl`, for which the IC50 was 0.4 µM.

For `Cc1nn(-c2nc(N)nc(-c3ccccn3)n2)c(C)c1Cc1ccccc1`, the IC50 was > 40 µM (inactive).

With `COCCn1c(-c2ccc3c(c2)OCO3)cnc1NCc1ccccc1OC`, the half-inhibitory concentration (IC50) was 20 µM.

Consider `COc1ccc(C2CC(c3ccccc3Cl)=NN2C(=O)CNC(=O)C2CCCC2)cc1` (configuration not stated), for which the IC50 is 0.63 µM.

Consider `CC1CN(Cc2ccc(C#N)cc2)CCN1c1ccc(NC(=O)c2ccccc2F)cc1` (configuration not stated), for which the IC50 was > 40 µM (inactive).

As for `COc1cccc(NS(=O)(=O)c2ccc3[nH]cc(C(=O)NCCC(C)C)c(=O)c3c2)c1`, the IC50 was 0.32 µM.

Take `CCn1c(NC(=O)Cc2ccc(F)cc2)nc2ccccc21`: the IC50 is 3.2 µM.

In the case of `O=C1COC(c2ccccc2)(c2ccccc2)CN1C1CCN(Cc2ccc(-n3ccnc3)cc2)CC1`, the concentration for half-maximal inhibition (IC50) is 0.79 µM.

For `CC1CN(S(=O)(=O)c2ccc(NC(=O)c3cc(C4CC4)nc4c3cnn4C(C)C)cc2)CC(C)O1` (configuration not stated), the IC50 is 6.3 µM.

Take `O=C(NCCc1csc(-c2cccc(F)c2)n1)c1ccco1`: the IC50 was 0.5 µM.

Take `CC(C)Oc1ccc(C(=O)Nc2ccc(N3CCOCC3)c(Cl)c2)cc1`: the IC50 was 13 µM.

On to `O=C(NNC(=O)c1ccccn1)c1ccc(-c2ccccc2)cc1`, for which the half-maximal inhibitory concentration (IC50) was 0.32 µM.

For `Cc1nn(-c2nc3ccccc3s2)c2c1C(c1ccc(OCC(N)=O)cc1)SCC(=O)N2` (configuration not stated), the IC50 is 0.02 µM.

Turning to `CCOc1cc(NCCCN2CCN(C)CC2)c2ncccc2c1`, the IC50 is 13 µM.

`COc1ccc([N+](=O)[O-])cc1NC(=O)c1cc(Cl)ccc1O`: the IC50 was 25 µM.

As for `NC(=O)c1cc(NC(=O)c2ccccc2COc2ccccc2)ccc1Cl`, the IC50 is 16 µM.

In the case of `O=C(Nc1nc(-c2ccc(S(=O)(=O)N3CCOCC3)cc2)cs1)c1ccc([N+](=O)[O-])cc1`, the concentration for half-maximal inhibition (IC50) was 4 µM.

For `CC(C)CC(=O)Nc1cc(C2CC2)nn1-c1nc2c(c(=O)[nH]1)CCCC2`, the half-inhibitory concentration (IC50) was 0.2 µM.

Regarding `CC(C)(C)C(O)(CCc1ccc(Cl)cc1)Cn1cncn1` (configuration not stated), the IC50 is > 40 µM (inactive).

`Clc1ccc(OCCN2CCCCC2c2cccnc2)c(Cl)c1` (configuration not stated): the IC50 was 32 µM.

On to `COc1ncc(-c2ccc3nccc(-c4ccncc4)c3c2)cc1NS(C)(=O)=O`, for which the concentration for half-maximal inhibition (IC50) was 0.32 µM.

As for `Cc1[nH]nc(-c2nc3ccccc3[nH]2)c1C(=O)NC1CCCNC1` (configuration not stated), the IC50 was 0.4 µM.

As for `CC(C)(C)CC(=O)NCCc1csc(-c2ccc(F)cc2)n1`, the IC50 was 0.63 µM.

Regarding `N#CN1CC[C@@H](NC(=O)Nc2ccccc2Oc2ccccc2)C1`, the IC50 is 1 µM.

For the compound `COc1ccccc1C=CCN1C[C@H]2CCC[C@@H](C1)C2(O)c1cccnc1` (some centres not stated), the IC50 is > 40 µM (inactive).

Turning to `COc1cc(C2SCC(=O)Nc3c2c(C)nn3-c2nc3ccccc3s2)cc(OC)c1O` (configuration not stated), the half-inhibitory concentration (IC50) is 6.3 µM.

With `COC(=O)c1ccc(-c2cnc3ccc(NCc4ccccn4)nn23)cc1`, the half-maximal inhibitory concentration (IC50) was 0.63 µM.

As to `CN(C)c1ccc(-c2cc3nccnc3c(OC[C@H]3CCCNC3)n2)cn1`, the IC50 is 2 µM.

On to `CC(C)c1nn(-c2nc(N)nc(-c3ccccn3)n2)c(N)c1C1CCCCC1`, for which the IC50 is 7.9 µM.

Turning to `Cc1cc(Nc2cc(C3CC3)[nH]n2)nc(N2CCCC2)n1`, the IC50 is 0.05 µM.

Turning to `Cc1cc(Nc2cc(C3CC3)[nH]n2)nc(N2CCC[C@H]2C(N)=O)n1`, the IC50 was 0.013 µM.

As for `Cc1nc2c(-c3ncn[nH]3)cc(NC(=O)Cc3ccccc3)cn2c1C`, the IC50 is 3.2 µM.

(Values after PubChem BioAssay AID1159557 (GlaxoSmithKline (GSK), 2015).)
